Tests used:
HBV [1] = experiment: HBV RNA/DNA analyses in induced HepAD38 cells (Northern/Southern blot); assay type: cell-based, Hepatitis B virus; conditions: HepAD38, 10-fold over VR EC50
HBV [2] = experiment: Extracellular HBV DNA and pgRNA in HepAD38 cells (qPCR, RT-qPCR); assay type: cell-based, Hepatitis B virus; conditions: HepAD38; concn ETV 0.01, ABI-H0731 2.0, GLS4 0.5, NVR 3-778 2.5, AT-130 0.8, VRD-32 0.8 μM
Text: For HBV RNA Northern blot analysis, total cellular RNA or encapsidated pgRNA samples were resolved in a 1.5% agarose gel containing 2.2 M formaldehyde and transferred onto a Hybond-XL membrane (GE Healthcare). For DNA Southern blot analysis, HBV core DNA or cccDNA samples were resolved by electrophoresis in a 1.2% agarose gel and blotted onto a Hybond-XL membrane. Membranes were probed with either an [α-^32P]UTP (3,000 Ci/mmol; PerkinElmer)-labeled plus-strand-specific (for Northern blot hybridization) or minus-strand-specific (for Southern blot hybridization) HBV riboprobe and exposed to a phosphorimager screen. Extracellular HBV DNA and RNA were copurified from the culture medium of induced HepAD38 cells by using a MinElute virus vacuum kit (Qiagen). Viral DNA was quantified using the above-mentioned qPCR method directly, and HBV RNA was detected by RT-qPCR with the same core region primer/probe set after the removal of DNA contamination by DNase I (Thermo Fisher) treatment.

HBV Cp Wild type = experiment: microbe, parasite or virus in culture; assay type: cell-based, Hepatitis B virus; conditions: for EC50: Hepatitis B virus, Huh-7, read-out: Mean EC50
HBV Cp P25A = experiment: microbe, parasite or virus in culture; assay type: cell-based, Hepatitis B virus; conditions: for EC50: Hepatitis B virus, Huh-7, read-out: Mean EC50
HBV Cp D29G = experiment: microbe, parasite or virus in culture; assay type: cell-based, Hepatitis B virus; conditions: for EC50: Hepatitis B virus, Huh-7, read-out: Mean EC50
HBV Cp T33N = experiment: microbe, parasite or virus in culture; assay type: cell-based, Hepatitis B virus; conditions: for EC50: Hepatitis B virus, Huh-7, read-out: Mean EC50
HBV Cp Y38C = experiment: microbe, parasite or virus in culture; assay type: cell-based, Hepatitis B virus; conditions: for EC50: Hepatitis B virus, Huh-7, read-out: Mean EC50
HBV Cp Y38F = experiment: microbe, parasite or virus in culture; assay type: cell-based, Hepatitis B virus; conditions: for EC50: Hepatitis B virus, Huh-7, read-out: Mean EC50
HBV Cp I105L = experiment: microbe, parasite or virus in culture; assay type: cell-based, Hepatitis B virus; conditions: for EC50: Hepatitis B virus, Huh-7, read-out: Mean EC50
HBV Cp I105T = experiment: microbe, parasite or virus in culture; assay type: cell-based, Hepatitis B virus; conditions: for EC50: Hepatitis B virus, Huh-7, read-out: Mean EC50
HBV Cp T109I = experiment: microbe, parasite or virus in culture; assay type: cell-based, Hepatitis B virus; conditions: for EC50: Hepatitis B virus, Huh-7, read-out: Mean EC50
HBV Cp T109M = experiment: microbe, parasite or virus in culture; assay type: cell-based, Hepatitis B virus; conditions: for EC50: Hepatitis B virus, Huh-7, read-out: Mean EC50
HBV Cp Y118F = experiment: microbe, parasite or virus in culture; assay type: cell-based, Hepatitis B virus; conditions: for EC50: Hepatitis B virus, Huh-7, read-out: Mean EC50
[3] = system: HBV (genotype D, subtype ayw); experiment: HBV replication assay in HepAD38 cells; assay type: cell-based, Hepatitis B virus; conditions: Hepatitis B virus, HePAD38, HepAD38; total intracellular viral DNA; read-out: Mean EC50, viral DNA
HBV [4] = experiment: HBV infection of HepG2-NTCP cells; assay type: cell-based; conditions: Hepatitis B virus
HBV [5] = experiment: HBV infection of primary human hepatocytes (PHHs); assay type: cell-based; conditions: Hepatitis B virus, Hepatocyte, PHH
[6] = total intracellular viral DNA, read-out: Mean EC50, viral DNA

Row | SMILES | Levels of encapsidated pgRNA by Northern blotting (HBV [1]) | rcDNA detection by Southern blot (HBV [1]) | Extracellular DNA content (% of DMSO control) (HBV [2]) | Extracellular pgRNA content (% of DMSO control) (HBV [2]) | EC50 (HBV Cp Wild type) | EC50 (HBV Cp P25A) | EC50 (HBV Cp D29G) | EC50 (HBV Cp T33N) | EC50 (HBV Cp Y38C) | EC50 (HBV Cp Y38F) | EC50 (HBV Cp I105L) | EC50 (HBV Cp I105T) | EC50 (HBV Cp T109I) | EC50 (HBV Cp T109M) | EC50 (HBV Cp Y118F) | further results
1 | O=C1CO[C@H](c2cn(-c3ccc(F)cc3)nc2-c2ccc(F)cc2)N1CCc1ccc(O)cc1 [VRD-32] | virtually undetectable | could not be detected | 0.3 % of DMSO control | 0.9 % of DMSO control | 16.1 ± 7.8 nM | 15.9 ± 0.04 nM | 13.8 ± 1 nM | 1290 nM | 20 ± 1.4 nM | 20 ± 10 nM | 40 ± 19 nM | 103 ± 87 nM | 15.8 ± 1.9 nM | 25 ± 23 nM | 805 ± 423 nM | Fold shift (HBV Cp Wild type; Wild type): 1 fold; Fold shift (HBV Cp P25A; P25A vs wild type): 1 fold; Fold shift (HBV Cp D29G; D29G vs wild type): 0.9 fold; Fold shift (HBV Cp T33N; T33N vs wild type): 80 fold; Fold shift (HBV Cp Y38C; Y38C vs wild type): 1.2 fold; Fold shift (HBV Cp Y38F; Y38F vs wild type): 1.3 fold; Fold shift (HBV Cp I105L; I105L vs wild type): 2.5 fold; Fold shift (HBV Cp I105T; I105T vs wild type): 6.4 fold; Fold shift (HBV Cp T109I; T109I vs wild type): 1 fold; Fold shift (HBV Cp T109M; T109M vs wild type): 1.6 fold; Fold shift (HBV Cp Y118F; Y118F vs wild type): 50 fold
2 | CCOC(=O)C1=C(CN2CCOCC2)NC(c2nccs2)=NC1c1ccc(F)cc1Br (stereo not shown) [GLS4] | virtually undetectable | could not be detected | 0.1 % of DMSO control | 0.1 % of DMSO control | 17.9 ± 0.4 nM | 451 ± 3.3 nM | 16.1 ± 0.4 nM | 6340 nM | 17 ± 9.5 nM | 65 ± 17 nM | 12 ± 6.5 nM | 17 ± 2.7 nM | 237 ± 16.6 nM | 15 ± 5.6 nM | 84.7 ± 2.3 nM | EC50 [3]: 29 ± 9 nM; EC50 (HBV [4]; read-out: EC50, HBeAg production): 550 nM; EC50 (HBV [4]; read-out: EC50, HBsAg production): 670 nM; EC50 (HBV [4]; read-out: EC50, pgRNA production): 280 nM; EC50 (HBV [4]; read-out: Mean EC50, HBeAg): 549 ± 48 nM; EC50 (HBV [4]; read-out: Mean EC50, HBsAg): 673 ± 41 nM; EC50 (HBV [4]; read-out: Mean EC50, pgRNA): 279 ± 43 nM; EC50 (HBV [4]; [6]): 58 ± 6 nM; EC50 (HBV [5]; read-out: EC50, HBeAg): 1480 nM; EC50 (HBV [5]; read-out: EC50, HBsAg): 1860 nM; EC50 (HBV [5]; read-out: EC50, pgRNA): 1930 nM; EC50 (HBV [5]; [6]): 1940 nM
3 | COc1ccccc1/C(Br)=C(/NC(=O)c1ccc([N+](=O)[O-])cc1)C(=O)N1CCCCC1 [AT-130] | – | – | 5.3 % of DMSO control | 8.6 % of DMSO control | – | – | – | – | – | – | – | – | – | – | – | –
